This series in a line: gradient 5% acetonitrile 3 min, to 50% in 2 min, to 85% in 15 min, held 3 min, 100 µL/min. The conditions noted are these: column: Zorbax Extend-C18 2.1 x 50 mm; eluents: water / acetonitrile, 0.1% formic acid. An outline of the steps:
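A Zorbax Extend-C18 column (2.1 × 50 mm, 1.8 μm) run at 100 μL/min with water and acetonitrile, both containing 0.1% formic acid, separated mixtures of ~100 pure standards. The HPLC was coupled to a quadrupole time-of-flight mass spectrometer operated in positive and negative ionization mode, with dead and dwell volumes of 40 μL and 900 μL. Each retention time was taken from a computationally picked adduct peak that was then manually inspected.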
In the case of `CN(c1ccccc1)S(=O)(=O)c1ccc(C(=O)Nc2nnc(C3=COCCO3)o2)cc1`, the RP-LC retention time was determined as 744 s.

`Cc1ccc(Cl)cc1-n1ccnc(NC(=O)Nc2ccccc2)c1=O` yielded an RP-LC retention time of 1020 s.

The compound `O=C(c1ccccc1C(F)(F)F)N1CCN(S(=O)(=O)C2CC2)CC1` came in with an RP-LC retention time of 725 s.

Regarding `Cc1cccc2nnc(N3CCN(C(=O)c4ccc(C(F)(F)F)s4)CC3)n12`, the RP-LC retention time turned out to be 751 s.

With `CC(C)n1c(-c2cccc(C(=O)NCc3ccco3)c2)nc2cccnc21`, the RP-LC retention time came out at 751 s.

The compound `O=c1ccn(-c2ccc(F)c(F)c2)nc1-c1nc(-c2ccc(F)cc2)no1` registered an RP-LC retention time of 904 s.

With `CCCN1C(=O)Cc2ccccc2C1C(=O)NCc1cccc(Br)c1` (stereo not given), the RP-LC retention time worked out at 854 s.

`OC1CCC12CCN(Cc1cn[nH]c1-c1ccccc1)CC2` (stereo not given) gave an RP-LC retention time of 568 s.

Take `COc1cccc(CN2CCC3(CC2)c2[nH]c4ccccc4c2CCN3C)c1`: the RP-LC retention time stood at 596 s.

In turn, `O=S(=O)(c1cccc(F)c1)N1CCN(c2cnn3c(C4CC4)nnc3c2)CC1` yielded an RP-LC retention time of 626 s.

For the compound `CCc1onc(C)c1C1CCCN1C(=O)c1c(F)cccc1F` (stereo not given), the RP-LC retention time stood at 788 s.

In the case of `CCc1nc2cc(N3CCC(C(=O)NCc4ccccc4)CC3)cnc2nc1CC`, the RP-LC retention time stood at 820 s.

For `O=C(NCc1noc(C2CCCC2)n1)c1coc(C2CC2)n1`, the RP-LC retention time was 821 s.

For `Cc1nn(-c2nc(-c3ccccc3)cs2)c(C)c1CC(=O)Nc1ccccc1Cl`, the RP-LC retention time came out at 1220 s.

The compound `CN(CCc1ccc(Cl)c(Cl)c1)[C@@H]1CCCC[C@@H]1N1CCCC1` registered an RP-LC retention time of 956 s.

Consider `CN(C)CCNC(=O)C1CCN(c2cnc(N3CCSCC3)nc2)CC1`, for which the RP-LC retention time turned out to be 580 s.

`CCn1cnc(S(=O)(=O)N2CCC(C(=O)NCc3cccc(C)c3)CC2)c1` yielded an RP-LC retention time of 721 s.

Consider `O=c1ccc(N2CCCN(S(=O)(=O)c3ccc(F)cc3)CC2)nn1-c1ccc(Cl)cc1`, for which the RP-LC retention time was determined as 926 s.

Turning to `CC(C)(C)c1ccc(S(=O)(=O)N2CCCC(CNC(=O)c3ccccc3)C2)cc1` (stereo not given), the RP-LC retention time is 1080 s.

As for `O=C(Cc1nnc(-c2cnccn2)o1)Nc1ccc(C(F)(F)F)cc1`, the RP-LC retention time was 766 s.

Compound `Cn1nc(C(=O)Nc2ccc(F)cc2)c2c1-c1cc(Cl)ccc1SC2` displayed an RP-LC retention time of 1280 s.

`CCCNC(=O)C1CCCN(c2ccc(SCC(=O)NCCc3ccc(Cl)cc3)nn2)C1` (stereo not given): the RP-LC retention time amounted to 676 s.

Regarding `O=C(c1ccccc1OCc1nc(-c2ccccc2)no1)N1CCCCC1`, the RP-LC retention time was 950 s.

`Cc1ccc(-c2noc(C3CC3)n2)cc1S(=O)(=O)N1CCC(C(=O)Nc2ncccc2C)CC1` registered an RP-LC retention time of 768 s.

`CCC(C(=O)Nc1ccc2c(c1)OCO2)n1cnc2nc3c(cc2c1=O)CCCC3` (stereo not given) returned an RP-LC retention time of 773 s.

As to `CCCNS(=O)(=O)c1cccc(-c2nnc(-c3ccc(C)cc3)o2)c1`, the RP-LC retention time worked out at 971 s.

`CC(C)CCNC(=O)C1CCN(Cc2cc3ccccc3n2Cc2cccc(Cl)c2)CC1` yielded an RP-LC retention time of 845 s.

Compound `COc1cccc(N2CCN(C(=O)C3CCN(c4ncnc5c4oc4ccccc45)CC3)CC2)c1` returned an RP-LC retention time of 794 s.

`CCOc1cccc(-c2noc(Cn3ncn4nc(-c5ccc(Br)cc5)cc4c3=O)n2)c1` showed an RP-LC retention time of 1310 s.

With `O=C(CN1C(=O)C2CCCCN2c2ccc(C(=O)N3CCCC3)cc21)NCc1ccco1` (stereo not given), the RP-LC retention time turned out to be 724 s.

Compound `Cc1c(Cl)cccc1NC(=O)C1CCCN(c2nc3ccccc3nc2C(F)(F)F)C1` (stereo not given) gave an RP-LC retention time of 1230 s.

Compound `Cc1ccc(-c2noc(Cn3ncn4nc(-c5ccccc5Cl)cc4c3=O)n2)cc1` returned an RP-LC retention time of 1200 s.

The compound `CC(C)CC(=O)N1CCN(c2ccc(=O)n(-c3ccc(Cl)cc3)n2)CC1` came in with an RP-LC retention time of 809 s.

In the case of `Cc1ccccc1Cc1c(C)nc2nc(SCC(=O)NCCN3CCOCC3)nn2c1C`, the RP-LC retention time came to 655 s.

The compound `CNC(=O)C1CCN(Cc2cc3ccccc3n2Cc2ccc(C)cc2)CC1` returned an RP-LC retention time of 693 s.

As for `COC(=O)c1ccccc1Nc1c(-c2ccc(F)cc2)nc2cnc(Br)cn12`, the RP-LC retention time came to 1120 s.

As to `CN(C)CCCNC(=O)c1ccc2c(c1)nc1n2CCN(C2CCCCC2)C1=O`, the RP-LC retention time came to 605 s.

Compound `COc1ccc(Cc2nnc(C3CCN(C(=O)c4cccc(N(C)C)c4)CC3)s2)cc1` registered an RP-LC retention time of 712 s.

On to `O=C(NCc1cc(F)ccc1F)C1CN(S(=O)(=O)c2cccnc2)CC12CCCCC2` (stereo not given), for which the RP-LC retention time is 919 s.

On to `Cc1cc(NS(=O)(=O)c2cc3n(c2)CCN(C(C)C)C3=O)ccc1F`, for which the RP-LC retention time came out at 1320 s.

Consider `O=C(O)CCCC(=O)Nc1nc(-c2ccccc2)c(-c2ccccc2)s1`, for which the RP-LC retention time stood at 893 s.

The compound `Cc1nn(C)cc1S(=O)(=O)Nc1ccc2c(c1)OCCO2` came in with an RP-LC retention time of 641 s.

As for `O=C(NCCc1c[nH]c2ccccc12)c1cccc(N2C(=O)CCS2(=O)=O)c1`, the RP-LC retention time came out at 749 s.

For the compound `CCn1cc(-c2ccncc2)cc1C(=O)NCc1ccc(SC)cc1`, the RP-LC retention time turned out to be 689 s.

Regarding `CCOc1ccc(C(=O)NC2(c3nc(C)no3)CCCCC2)cc1OCC`, the RP-LC retention time is 903 s.

The compound `O=C(NCC1CC1)c1cn(C2CN(C(=O)Nc3ccc4c(c3)OCCO4)C2)nn1` showed an RP-LC retention time of 685 s.

`CC(C)C(=O)Nc1cnc(-c2cccc(Cl)c2)nc1` displayed an RP-LC retention time of 975 s.

The compound `Cc1cc(C)n(CCC(=O)N2CCCn3ccnc3C2C2CCCC2)n1` (stereo not given) came in with an RP-LC retention time of 604 s.

Turning to `Cc1ccc(C)c(NC(=O)N2C[C@@H](F)C[C@H]2C(=O)N2CCCCC2)c1`, the RP-LC retention time came out at 730 s.

In the case of `CCCNC(=O)N1CCN(c2nc(CC(C)C)c3c(c2C#N)CC(C)(C)OC3)CC1`, the RP-LC retention time turned out to be 1090 s.

`CNC(=O)c1noc([C@@H]2CC(F)(F)CN2Cc2ccco2)n1` gave an RP-LC retention time of 732 s.

In turn, `CCOc1cc(C2c3c(oc4ccccc4c3=O)C(=O)N2CCCN(C)C)ccc1O` (stereo not given) showed an RP-LC retention time of 989 s.

In the case of `COc1cc(Cl)ccc1C(=O)Nc1cc(S(=O)(=O)N2CCSCC2)sc1C`, the RP-LC retention time was found to be 1090 s.

Compound `Clc1ccc(-c2nc3ccc(Cl)cn3c2Nc2ccc3c(c2)OCO3)cc1` returned an RP-LC retention time of 926 s.

Turning to `O=c1c2ccccc2nc2n1CCCC2`, the RP-LC retention time stood at 653 s.

`CCOc1ccc(C2Cn3nnc(-c4nc(-c5ccc(C)cc5)no4)c3CO2)cc1` (stereo not given): the RP-LC retention time turned out to be 1250 s.

Regarding `CCc1ccccc1N1C(=O)c2c(C(=O)OC)ncn2CC1(C)C(=O)NCc1ccccc1` (stereo not given), the RP-LC retention time was 735 s.

Regarding `Cn1c(=O)c2nc(S(=O)(=O)CCC(=O)Nc3cccc(Br)c3)n(C)c2n(C)c1=O`, the RP-LC retention time is 750 s.

As to `CC(C)(C)N(Cc1ccc2c(c1)OCO2)C(=O)/C=C\S(=O)c1ccccc1` (stereo not given), the RP-LC retention time turned out to be 902 s.

On to `Cc1ccc(Cl)cc1N1C(=O)CN(S(C)(=O)=O)CC1(C)C(=O)NCc1ccccc1` (stereo not given), for which the RP-LC retention time was found to be 854 s.

`Fc1cc(F)cc(CN2CCCN(c3ncccc3-c3nc(C4CC4)no3)CC2)c1` returned an RP-LC retention time of 720 s.

Regarding `c1ccc(-c2nc3nc4c(c(Nc5ccc6c(c5)OCO6)n3n2)CCCC4)cc1`, the RP-LC retention time came to 953 s.

The compound `CCOc1cccc(NC2=NS(=O)(=O)c3ccccc32)c1` showed an RP-LC retention time of 843 s.

In turn, `CCc1cccc(NC(=O)Cn2c(=O)n(-c3ccc(C)cc3)c(=O)c3c2cc(C)n3C)c1` showed an RP-LC retention time of 975 s.

The compound `CCCN(CC1CCOC1)C(=O)Nc1ccccc1F` (stereo not given) showed an RP-LC retention time of 728 s.

Compound `Cc1nc(CN2CC(c3nc(-c4cccs4)no3)C2)cs1` came in with an RP-LC retention time of 568 s.

Consider `C(=C\CSc1ccccn1)/CSc1ccccn1`, for which the RP-LC retention time is 955 s.

`COc1ccc(CCC(=O)NCC2(c3cccs3)CCCC2)cc1`: the RP-LC retention time amounted to 947 s.

The compound `CCOc1ccc(NC(=O)C2CCN(S(=O)(=O)c3ccc4c(c3)NC(=O)CO4)CC2)cc1` showed an RP-LC retention time of 801 s.

`O=C(NCc1cccnc1)C1c2ccccc2C(=O)N(C2CCCC2)C1c1cccs1` (stereo not given) gave an RP-LC retention time of 591 s.

As to `Cn1nnc2ccc(-c3noc(-c4ccccc4Br)n3)cc21`, the RP-LC retention time is 1030 s.

In turn, `CCc1nc(-c2ccc(-c3noc(CNC(=O)c4ccc(C)cc4)n3)cc2)cs1` gave an RP-LC retention time of 1040 s.

As for `CCn1nnc2ccc(-c3noc(-c4ccc(C#N)cc4)n3)cc21`, the RP-LC retention time was 971 s.

In the case of `COc1cccc(S(=O)(=O)N2CCC(n3c(C)cnc3C3CC3)C2)c1` (stereo not given), the RP-LC retention time stood at 587 s.

On to `Cc1ccn2cc(C(=O)NC3CCCCCC3)nc2c1`, for which the RP-LC retention time came to 683 s.

Regarding `COC(=O)c1cccc(NC(=O)N2CCN(Cc3nc4ccc(Cl)cc4o3)CC2)c1`, the RP-LC retention time was 756 s.

Compound `O=C(NC(=O)N1CCN(Cc2ccccc2)CC1)c1ccccc1` returned an RP-LC retention time of 549 s.

Consider `Cc1ccc2c(c1)N(Cc1nc(-c3ccccc3Cl)no1)C(=O)CO2`, for which the RP-LC retention time was found to be 1040 s.

Compound `CCCOc1nc2ccccc2nc1N1CCCC(C(=O)Nc2ccccc2CC)C1` (stereo not given) registered an RP-LC retention time of 1320 s.

`COC1CCC12CCN(C(=O)c1sc(C)nc1C)CC2` (stereo not given) had an RP-LC retention time of 728 s.

Source of the values: the METLIN SMRT retention time set (Domingo-Almenara et al. 2019).
